# Laboratory results taken from ChEMBL document CHEMBL3112450, “Synthesis and in vitro antitumor evaluation of primary amine substituted quinazoline linked benzimidazole” (Bioorg Med Chem Lett, 2014).
# Columns and labels:
# Assay type in all cases: functional
# [1] = system: K562; test: Cytotoxicity against human K562 cells assessed as cell growth at 10^-4 M after 48 hrs by SRB assay; settings: K562, 48 h, read-out: Activity
# [2] = system: MDA-MB-435; test: Cytotoxicity against human MDA-MB-435 cells after 48 hrs by SRB assay; settings: MDA-MB-435, 48 h
# [3] = system: HOP-92; test: Cytotoxicity against human HOP92 cells assessed as cell growth at 10^-4 M after 48 hrs by SRB assay; settings: HOP-92, 48 h, read-out: Activity
# [4] = system: A498; test: Cytotoxicity against human A498 cells assessed as cell growth at 10^-4 M after 48 hrs by SRB assay; settings: A498, 48 h, read-out: Activity
# [5] = system: MCF7; test: Cytotoxicity against human MCF7 cells assessed as cell growth at 10^-7 M after 48 hrs by SRB assay; settings: MCF7, 48 h, read-out: Activity
# [6] = Cytotoxicity against human NCI-ADR-RES cells after 48 hrs by SRB assay
# [7] = system: HCT-15; test: Cytotoxicity against human HCT15 cells after 48 hrs by SRB assay; settings: HCT-15, 48 h
# [8] = system: SK-MEL-5; test: Cytotoxicity against human SK-MEL-5 cells assessed as cell growth at 10^-6 M after 48 hrs by SRB assay; settings: SK-MEL-5, 48 h, read-out: Activity
# [9] = system: BT-549; test: Cytotoxicity against human BT549 cells assessed as cell growth at 10^-4 M after 48 hrs by SRB assay; settings: BT-549, 48 h, read-out: Activity
# [10] = system: 786-0; test: Cytotoxicity against human 786-0 cells after 48 hrs by SRB assay; settings: 786-0, 48 h
# [11] = Cytotoxicity against human OVCAR4 cells assessed as cell growth at 10^-4 M after 48 hrs by SRB assay; settings: OVCAR-4, 48 h, read-out: Activity
# [12] = system: NCI-H23; test: Cytotoxicity against human NCI-H23 cells after 48 hrs by SRB assay; settings: NCI-H23, 48 h
# [13] = system: MDA-MB-435; test: Cytotoxicity against human MDA-MB-435 cells assessed as cell growth at 10^-7 M after 48 hrs by SRB assay; settings: MDA-MB-435, 48 h, read-out: Activity
# [14] = system: SF-268; test: Cytotoxicity against human SF268 cells assessed as cell growth at 10^-4 M after 48 hrs by SRB assay; settings: SF-268, 48 h, read-out: Activity
# [15] = system: RPMI-8226; test: Cytotoxicity against human RPMI8226 cells assessed as cell growth at 10^-6 M after 48 hrs by SRB assay; settings: RPMI-8226, 48 h, read-out: Activity
# [16] = system: IGROV-1; test: Cytotoxicity against human IGROV1 cells assessed as cell growth at 10^-4 M after 48 hrs by SRB assay; settings: IGROV-1, 48 h, read-out: Activity
# [17] = system: UACC-62; test: Cytotoxicity against human UACC62 cells assessed as cell growth at 10^-4 M after 48 hrs by SRB assay; settings: UACC-62, 48 h, read-out: Activity
# [18] = system: SK-MEL-28; test: Cytotoxicity against human SK-MEL-28 cells assessed as cell growth at 10^-8 M after 48 hrs by SRB assay; settings: SK-MEL-28, 48 h, read-out: Activity
# [19] = system: TK-10; test: Cytotoxicity against human TK10 cells assessed as cell growth at 10^-6 M after 48 hrs by SRB assay; settings: TK-10, 48 h, read-out: Activity
# [20] = system: SK-OV-3; test: Cytotoxicity against human SKOV3 cells assessed as cell growth at 10^-8 M after 48 hrs by SRB assay; settings: SK-OV-3, 48 h, read-out: Activity
# [21] = system: OVCAR-3; test: Cytotoxicity against human OVCAR3 cells assessed as cell growth at 10^-7 M after 48 hrs by SRB assay; settings: OVCAR-3, 48 h, read-out: Activity
# [22] = system: RXF 393; test: Cytotoxicity against human RXF393 cells assessed as cell growth at 10^-4 M after 48 hrs by SRB assay; settings: RXF 393, 48 h, read-out: Activity
# [23] = system: MDA-MB-468; test: Cytotoxicity against human MDA-MB-468 cells assessed as cell growth at 10^-4 M after 48 hrs by SRB assay; settings: MDA-MB-468, 48 h, read-out: Activity
# [24] = system: UACC-62; test: Cytotoxicity against human UACC62 cells after 48 hrs by SRB assay; settings: UACC-62, 48 h
# [25] = Cytotoxicity against human OVCAR5 cells assessed as cell growth at 10^-4 M after 48 hrs by SRB assay; settings: OVCAR-5, 48 h, read-out: Activity
# [26] = system: CAKI-1; test: Cytotoxicity against human Caki1 cells assessed as cell growth at 10^-8 M after 48 hrs by SRB assay; settings: CAKI-1, 48 h, read-out: Activity
# [27] = Cytotoxicity against human OVCAR4 cells assessed as cell growth at 10^-8 M after 48 hrs by SRB assay; settings: OVCAR-4, 48 h, read-out: Activity
# [28] = system: SN12C; test: Cytotoxicity against human SN12C cells after 48 hrs by SRB assay
# [29] = system: LOX IMVI; test: Cytotoxicity against human LOXIMVI cells assessed as cell growth at 10^-4 M after 48 hrs by SRB assay; settings: read-out: Activity
# [30] = system: CCRF-CEM; test: Cytotoxicity against human CCRF-CEM cells assessed as cell growth at 10^-7 M after 48 hrs by SRB assay; settings: read-out: Activity
# [31] = system: KM12; test: Cytotoxicity against human KM12 cells assessed as cell growth at 10^-7 M after 48 hrs by SRB assay; settings: KM12, 48 h, read-out: Activity
# [32] = system: T47D; test: Cytotoxicity against human T47D cells assessed as cell growth at 10^-4 M after 48 hrs by SRB assay; settings: read-out: Activity
# [33] = Cytotoxicity against human NCI-ADR-RES cells assessed as cell growth at 10^-4 M after 48 hrs by SRB assay; settings: read-out: Activity
# [34] = system: CAKI-1; test: Cytotoxicity against human Caki1 cells assessed as cell growth at 10^-6 M after 48 hrs by SRB assay; settings: CAKI-1, 48 h, read-out: Activity
# [35] = system: CCRF-CEM; test: Cytotoxicity against human CCRF-CEM cells assessed as cell growth at 10^-4 M after 48 hrs by SRB assay; settings: read-out: Activity
# [36] = system: HCC 2998; test: Cytotoxicity against human HCC2998 cells assessed as cell growth at 10^-7 M after 48 hrs by SRB assay; settings: HCC 2998, 48 h, read-out: Activity
# [37] = system: MOLT-4; test: Cytotoxicity against human MOLT4 cells assessed as cell growth at 10^-6 M after 48 hrs by SRB assay; settings: MOLT-4, 48 h, read-out: Activity
# [38] = system: Malme-3M; test: Cytotoxicity against human MALME-3M cells assessed as cell growth at 10^-6 M after 48 hrs by SRB assay; settings: read-out: Activity
smiles,measurement,setting,value
C=CCn1c(C)nc2ccc(Nc3nc(Nc4ccc5nc(C)n(CC=C)c5c4)c4ccccc4n3)cc21,growth at 100 µM,[1],1%
same,GI50,[2],1.73 µM
same,TGI,[2],3.33 µM
same,growth at 100 µM,[3],-47%
same,growth at 100 µM,[4],-21%
same,growth at 0.1 µM,[5],91%
same,GI50,[6],2.22 µM
same,LC50,[6],> 100 µM
same,TGI,[6],6.07 µM
same,GI50,[7],1.77 µM
same,TGI,[7],3.55 µM
same,growth at 1 µM,[8],91%
same,growth at 100 µM,[9],-32%
same,GI50,[10],1.73 µM
same,TGI,[10],3.36 µM
same,growth at 100 µM,[11],-43%
same,GI50,[12],1.72 µM
same,TGI,[12],3.23 µM
same,growth at 0.1 µM,[13],98%
same,growth at 100 µM,[14],-33%
same,growth at 1 µM,[15],83%
same,growth at 100 µM,[16],-25%
same,growth at 100 µM,[17],-65%
same,growth at 0.01 µM,[18],98%
same,growth at 1 µM,[19],116%
same,growth at 0.01 µM,[20],97%
same,growth at 0.1 µM,[21],96%
same,growth at 100 µM,[22],-31%
same,growth at 100 µM,[23],-33%
same,GI50,[24],1.55 µM
same,TGI,[24],2.89 µM
same,CC50,[24]; read-out: LC50 (the source's name),5.38 µM
same,growth at 100 µM,[25],-75%
same,growth at 0.01 µM,[26],93%
same,growth at 0.01 µM,[27],99%
same,GI50,[28],1.62 µM
same,LC50,[28],5.45 µM
same,TGI,[28],2.98 µM
same,growth at 100 µM,[29],7%
same,growth at 0.1 µM,[30],96%
same,growth at 0.1 µM,[31],92%
same,growth at 100 µM,[32],-22%
same,growth at 100 µM,[33],-18%
same,growth at 1 µM,[34],90%
same,growth at 100 µM,[35],2%
same,growth at 0.1 µM,[36],101%
same,growth at 1 µM,[37],73%
same,growth at 1 µM,[38],98%
